One data set addresses T1, P-gp (Mus musculus, UniProt P21447).
T1 construct: from tissue; host or cells: living mice (brain/plasma distribution), wild type versus mdr1a (−/−)
In words: P-gp substrate test using mdr1a (−/−) B6 mice. Conditions: Kp in KO mouse (mdr1a (−/−) B6) / Kp in Wild mouse; for Kp at 2 h: mdr1a (−/−) B6 (KO) and C57BL/6J (wild), mouse, brain / plasma, po, 2 mg/kg, read-out: Kp ratio (2 mg/kg, po, 2 hr). It is filed as in vivo. As to the method: Animal: mdrla (−/−) B6 mice (KO mouse) or […] mice (Wild mouse)
1. Animals may be fed prior to dosing of the compounds of the present invention. 2. The compounds of the present invention were dosed to three animals for each time point and blood and brain samples were removed at selected time points (e.g. 15 min, 30 min, 1 hr, 2 hr, 4 hr, 6 hr, 8 hr, or 24 hr) after dosing. Blood (0.3-0.7 mL) was collected via trunk blood collection with syringe containing anticoagulants (EDTA and heparin). Blood and tissue (e.g. brain) samples were immediately placed on melting ice. 3. Blood samples were centrifuged (1780×g for 10 minutes) for cell removal to obtain plasma. Then, plasma samples were transferred to a clean tube and stored in a −70° C. freezer until analysis. 4. Tissue (e.g. brain) samples were homogenized at a 1:3 ratio of tissue weight to ml of stilled water and transferred to a clean tube and stored in a −70° C. freezer until analysis. 5. Plasma and tissue (e.g. brain) samples were prepared using protein prceipitation and analyzed by LC/MS/MS. The analytical method was calibrated by including a standard curve constructed with blank plasma or brain samples and known quantities of analyte. Quality control samples were included to monitor the accuracy and precision of the methodology. 6. Plasma and brain concentration values (ng/mL and ng/g) were introduced into an appropriate tool used for calculating the pharmacokinetic parameters. A common platform was the WinNonlin (Registered trademark) pharmacokinetic software modeling program.
Kp: Tissue to Plasma concentration ratio Kp ratio=Kp in KO mouse/Kp in Wild mouse KO/Wild ratio of AUC Tissue/AUC Plasma ={AUC Tissue/AUC Plasma (KO mouse)}/{AUC Tissue/AUC Plasma (Wild mouse)}

The target of a further data set is T2, Recombinant human BACE1 (Homo sapiens, UniProt P56817).
T2 construct: purchased R&D Systems
T2 sequence (P56817 46-501): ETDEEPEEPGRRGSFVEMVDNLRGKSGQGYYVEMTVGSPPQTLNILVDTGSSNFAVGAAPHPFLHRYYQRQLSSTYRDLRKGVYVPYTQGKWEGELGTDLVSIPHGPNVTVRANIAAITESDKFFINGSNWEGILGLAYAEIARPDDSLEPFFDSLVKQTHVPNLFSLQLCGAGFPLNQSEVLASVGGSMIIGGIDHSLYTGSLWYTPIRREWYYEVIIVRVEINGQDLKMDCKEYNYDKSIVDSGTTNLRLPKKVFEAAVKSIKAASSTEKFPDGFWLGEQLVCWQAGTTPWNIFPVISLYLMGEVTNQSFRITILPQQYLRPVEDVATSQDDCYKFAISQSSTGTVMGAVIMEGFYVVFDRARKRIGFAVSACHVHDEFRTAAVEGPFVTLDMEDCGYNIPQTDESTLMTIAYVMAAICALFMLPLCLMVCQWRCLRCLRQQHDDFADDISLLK
The data set can be described thus: Assay of BACE1 inhibitory activity: 96-well. It is filed as biochemical. Conditions: Assay format 96-well. The protocol:
48.5 μL of substrate peptide solution (Biotin-XSEVNLDAEFRHDSGC-Eu: X=ε-amino-n-capronic acid. Eu=Europium cryplate) was added to each well of 96-hole half-area plate (a black plate: Costar), and after addition of 0.5 μl of the compound of the present invention (DMSO solution) and 1 μl of Recombinant human BACE1(R&D Systems), the reaction mixture was incubated at 30° C. for 3.5 hours. The substrate peptide was synthesized by reacting Cryptate TBPCOOH mono SMP (CIS bio international) with Biotin-XSEVNLDAEFRHDSGC (Peptide Institute, Inc.).
After the incubation for reaction, 50 μl of 8.0 μg/ml Streptavidin-XL665 (CIS bio international) dissolved in phosphate buffer (150 mmol/L […]—KH2PO4, pH 7.0, 0.008% Triton X-100, 0.8 mol/L KF) was added to each well and left stand at 30° C. for 45 minutes.

Data set [1] is described as follows: Pharmacokinetic study (oral absorption). Type of data set: in vivo. Conditions: bioavailability from AUCs of oral and intravenous administration; mouse or rat. As to the method:
(1l) Animal: mouse or rat (2) Breeding conditions: mouse or rat was allowed free access to the tap water and the solid food. (3) Dose and grouping: orally or intravenously administered at a predetermined dose: grouping was as follows (Dose depends on the compound) Oral administration: 1 to 30 mg/kg (n=2 to 3) Intravenous administration: 0.5 to 10 mg/kg (n=2 to 3) (4) Dosing formulation: for oral administration, in a solution or a suspension state; for intravenous administration, in a solubilized state (5) Dosing method: in oral administration, forcedly administer using a syringe attached a flexible feeding tube; in intravenous administration, administer from caudal vein using a syringe attached with a needle. (6) Evaluation items: blood was collected at the scheduled time, and the plasma concentration of the compound of the present invention was measured by LC/MS/MS (7) Statistical analysis: regarding the transition of the plasma concentration of the compound of the present invention, the area under the plasma concentration-time curve (AUC) was calculated by non-linear least squares program WinNonlin (Registered trademark), and the bioavailability (BA) of the compound of the present invention was calculated from the AUCs of the oral administration group and intravenous administration group

Data set [2] concerns Aβ production in neuroblastoma SH-SY5Y cells (SH/APPwt). In words: β-amyloid (Aβ) production inhibitory effect in cell: 96-well. Conditions: Homo sapiens, Assay format 96-well. It is filed as cell-based. The protocol:
Neuroblastoma SH-SY5V cells (SH/APPwt) with human wild-type R-APP excessively expressed therein were prepared at 8×10^5 cells/mL, and 150 μl portions thereof were inoculated into each well of a 96-well culture plate (Falcon). The cells were cultured for 2 hours at […]. in a 5% gaseous carbon dioxide incubator. […] Namely, the final DMSO concentration was 1%, and the amount of the cell culture was 200 μl. After the incubation was performed for 24 hours from the addition of the test compound, 100 μl of the culture supernatant was collected from each fraction. The amount of the Aβ in each fraction was measured. The Aβ amount was measured as follows. 10 μl of a homogeneous time resolved fluorescence (HTRF) measurement reagent (Amyloid β1-40 peptide: CIS bio international) and 10 μof the culture supernatant were put into a 384-well half area microplate (black microplate, Costar) and mixed with each other, and then left standing overnight at 4° C. while the light was shielded.

T1 sequence (P21447 whole entry): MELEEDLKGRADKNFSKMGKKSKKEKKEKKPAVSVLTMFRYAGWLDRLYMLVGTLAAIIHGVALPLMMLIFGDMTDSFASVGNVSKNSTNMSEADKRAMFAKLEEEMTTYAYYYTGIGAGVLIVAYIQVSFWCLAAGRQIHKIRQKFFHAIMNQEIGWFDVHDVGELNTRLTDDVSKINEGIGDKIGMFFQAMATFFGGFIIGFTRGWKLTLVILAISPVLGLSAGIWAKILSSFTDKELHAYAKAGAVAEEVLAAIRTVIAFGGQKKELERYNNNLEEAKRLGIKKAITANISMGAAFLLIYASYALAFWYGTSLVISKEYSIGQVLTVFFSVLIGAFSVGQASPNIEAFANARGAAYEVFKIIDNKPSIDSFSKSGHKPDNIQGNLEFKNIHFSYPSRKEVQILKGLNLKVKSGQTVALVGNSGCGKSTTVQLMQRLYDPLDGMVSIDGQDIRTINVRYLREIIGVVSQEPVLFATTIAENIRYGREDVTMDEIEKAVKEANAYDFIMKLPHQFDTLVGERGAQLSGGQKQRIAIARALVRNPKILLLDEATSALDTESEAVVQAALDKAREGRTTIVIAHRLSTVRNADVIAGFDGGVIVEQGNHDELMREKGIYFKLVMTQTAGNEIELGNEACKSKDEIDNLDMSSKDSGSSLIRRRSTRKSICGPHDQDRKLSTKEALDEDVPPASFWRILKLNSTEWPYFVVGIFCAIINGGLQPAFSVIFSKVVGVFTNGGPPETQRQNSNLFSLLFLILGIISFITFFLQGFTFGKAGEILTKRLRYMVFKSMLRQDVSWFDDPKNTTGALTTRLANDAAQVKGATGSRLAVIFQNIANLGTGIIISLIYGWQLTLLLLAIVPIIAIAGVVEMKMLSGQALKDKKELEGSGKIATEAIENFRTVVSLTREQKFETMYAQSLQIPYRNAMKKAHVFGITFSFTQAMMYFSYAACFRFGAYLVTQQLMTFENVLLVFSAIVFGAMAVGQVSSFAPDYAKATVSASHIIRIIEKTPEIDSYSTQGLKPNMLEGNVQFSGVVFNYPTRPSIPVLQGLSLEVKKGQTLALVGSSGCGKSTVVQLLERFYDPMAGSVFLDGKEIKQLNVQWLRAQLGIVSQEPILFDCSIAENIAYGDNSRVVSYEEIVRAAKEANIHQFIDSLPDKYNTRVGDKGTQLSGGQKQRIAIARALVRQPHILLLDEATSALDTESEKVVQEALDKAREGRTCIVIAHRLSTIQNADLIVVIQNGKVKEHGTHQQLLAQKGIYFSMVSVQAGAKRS

By IC50 is commonly meant the concentration needed to halve the response being measured. As to `C[C@H]1SC(N)=N[C@](C)(c2nc(NC(=O)c3ccc(C#N)cn3)ccc2F)[C@H]1F` [Compound I-1], at P-gp, the Kp at 2 h was 4.12. For the same molecule, the IC50 was found to be 13.3 nM on Recombinant human BACE1 and 0.504 nM in data set [2]. For the same molecule, the BA_% in data set [1] was 66.7%.

Turning to `C[C@]1(c2cc(NC(=O)c3ccc(C#N)cn3)ccc2F)N=C(N)O[C@H](CF)[C@@H]1OCC(F)(F)F` [Compound I-10], the results for the IC50 (at Recombinant human BACE1; in data set [2]) were 25.8 nM and 0.708 nM, respectively. The molecule also came in with a BA_% in data set [1] of 46.3%.

Consider `C[C@]1(c2cc(NC(=O)c3ccc(F)cn3)ccc2F)N=C(N)O[C@H](CF)[C@@H]1OCC(F)(F)F` [Compound I-11], for which the values for the IC50 (at Recombinant human BACE1; in data set [2]) were 102 nM and 4.21 nM, respectively.

For `C[C@]1(c2cc(NC(=O)c3cnc(OCF)cn3)ccc2F)N=C(N)O[C@H](CF)[C@@H]1OCC(F)(F)F` [Compound I-12], the values for the IC50 (at Recombinant human BACE1; in data set [2]) were 56.8 nM and 1.88 nM, respectively. Further, in data set [1], the BA_% is listed as 47.4%.

As to `C[C@H](F)[C@H]1OC(N)=N[C@](C)(c2cc(NC(=O)c3ccc(C#N)cn3)ccc2F)[C@H]1F` [Compound I-13], the IC50 came out at 32 nM at Recombinant human BACE1 and 1.12 nM in data set [2]. Also, the BA_% in data set [1] turned out to be 47.3%.

`C[C@@H](F)[C@H]1OC(N)=N[C@](C)(c2cc(NC(=O)c3ccc(C#N)cn3)ccc2F)[C@H]1F` [Compound I-15]: the IC50 was 15.2 nM on Recombinant human BACE1 and 0.65 nM in data set [2]. Further, the BA_% in data set [1] came to 37.4%.

Turning to `COc1cnc(C(=O)Nc2ccc(F)c([C@@]3(C)N=C(N)O[C@H]([C@H](C)F)[C@@H]3F)c2)cn1` [Compound I-17], the IC50 on Recombinant human BACE1 came out at 59.7 nM; in data set [2] it was 3.23 nM.

On to `CO[C@H]1[C@@H](CF)OC(N)=N[C@]1(C)c1cc(NC(=O)c2ccc(C#N)cn2)ccc1Cl` [Compound I-18], for which the IC50 at Recombinant human BACE1 is 18 nM; in data set [2], 0.573 nM.

For `CO[C@H]1[C@@H](CF)OC(N)=N[C@]1(C)c1cc(NC(=O)c2cnc(OCF)cn2)ccc1Cl` [Compound I-19], the IC50 at Recombinant human BACE1 amounted to 46.5 nM; in data set [2], 1.2 nM. The same molecule registered a BA_% in data set [1] of 39.1%.

With `CO[C@H]1[C@@H](CF)OC(N)=N[C@]1(C)c1cc(NC(=O)c2ccc(F)cn2)ccc1Cl` [Compound I-20], the IC50 is 72.7 nM on Recombinant human BACE1 and 4.19 nM in data set [2].

With `CO[C@H]1[C@@H](CF)OC(N)=N[C@]1(C)c1cc(NC(=O)c2cnc(OCF)cn2)ccc1F` [Compound I-24], the IC50 stood at 97 nM on Recombinant human BACE1 and 2.28 nM in data set [2]. The BA_% in data set [1] is reported as 44%.

`CO[C@H]1[C@@H](CF)OC(N)=N[C@]1(C)c1cc(NC(=O)c2ccc(F)cn2)ccc1F` [Compound I-25]: the IC50 worked out at 156 nM at Recombinant human BACE1 and 4.31 nM in data set [2].

As for `C[C@@H]1[C@@H](C(F)(F)F)OC(N)=N[C@]1(C)c1cc(NC(=O)c2ccc(C#N)cn2)ccc1F` [Compound I-27], the IC50 at Recombinant human BACE1 came out at 40.5 nM; in data set [2], 6.7 nM.

Regarding `C[C@H]1[C@@H](C(F)(F)F)OC(N)=N[C@]1(C)c1cc(NC(=O)c2ccc(C#N)cn2)ccc1F` [Compound I-28], the Kp at 2 h at P-gp turned out to be 5.41. Also, the IC50 at Recombinant human BACE1 amounted to 22.6 nM; in data set [2], 1.5 nM.

`C[C@H]1[C@H](C(F)(F)F)OC(N)=N[C@]1(C)c1cc(NC(=O)c2ccc(C#N)cn2)ccc1F` [Compound I-29]: the IC50 on Recombinant human BACE1 came to 1560 nM; in data set [2], 93.5 nM.

On to `C[C@H]1[C@@H](C(F)(F)F)OC(N)=N[C@]1(C)c1cc(NC(=O)c2cnc(OCF)cn2)ccc1F` [Compound I-30], for which the Kp at 2 h at P-gp turned out to be 3.63. For the same molecule, the results for the IC50 (on Recombinant human BACE1; in data set [2]) were 52.1 nM and 2.33 nM, respectively.

Consider `C[C@H]1[C@@H](C(F)F)OC(N)=N[C@]1(C)c1cc(NC(=O)c2ccc(C#N)cn2)ccc1F` [Compound I-31], for which the IC50 is 22.3 nM on Recombinant human BACE1 and 0.668 nM in data set [2].

As to `Cc1nc(C(=O)Nc2ccc(F)c([C@@]3(C)N=C(N)O[C@H](C(F)(F)F)[C@@H]3C)c2)co1` [Compound I-32], the IC50 at Recombinant human BACE1 was determined as 43.6 nM; in data set [2] it was 2.39 nM.

Regarding `C[C@H]1[C@@H](C(F)F)OC(N)=N[C@]1(C)c1cc(NC(=O)c2cnc(OCF)cn2)ccc1F` [Compound I-33], the IC50 at Recombinant human BACE1 amounted to 49.2 nM; in data set [2] it was 1.07 nM.

Turning to `C[C@]1(c2cc(NC(=O)c3ccc(C#N)cn3)ccc2F)N=C(N)O[C@H]2[C@@H]1OCC2(F)F` [Compound I-35], the Kp at 2 h at P-gp is 5.15. Also, the IC50 on Recombinant human BACE1 is 13.1 nM; in data set [2], 0.391 nM.

On to `CC(F)(F)[C@H]1OC(N)=N[C@](C)(c2cc(NC(=O)c3ccc(C#N)cn3)ccc2F)[C@H]1F` [Compound I-40], for which the Kp at 2 h at P-gp worked out at 6.97. Moreover, in data set [1], the BA_% came to 36.2%.

On to `C[C@H]1[C@@H](C(F)(F)F)OC(N)=N[C@]1(C)c1cc(NC(=O)c2cnc(OCF)cn2)ccc1F` [Compound I-41], for which, at P-gp, the “Kp ratio (2 mg/kg, po, 2 hr)” value was determined as 2.66. In addition, the BA_% in data set [1] is given as 35.2%.

In the case of `COc1cnc(C(=O)Nc2ccc(F)c([C@@]3(C)N=C(N)O[C@H](C(C)(F)F)[C@@H]3F)c2)cn1` [Compound I-42], on P-gp, the Kp at 2 h stood at 2.07. The BA_% in data set [1] came out at 28.7%.

As to `C[C@]1(c2cc(NC(=O)c3cnc(OCF)cn3)ccc2F)N=C(N)OCC12CC(F)(F)C2` [Compound I-44], the IC50 at Recombinant human BACE1 came out at 69.6 nM; in data set [2] it was 2.11 nM.

`C[C@]1(c2cc(NC(=O)c3ccc(F)cn3)ccc2F)N=C(N)OCC12CC(F)(F)C2` [Compound I-45]: the IC50 was determined as 134 nM at Recombinant human BACE1 and 5.71 nM in data set [2].

`C[C@H]1SC(N)=N[C@](C)(c2cc(NC(=O)c3cnc(OCC(F)(F)F)cn3)ccc2F)[C@H]1F` [Compound I-46]: the Kp at 2 h at P-gp is 6.13. For the same molecule, the BA_% in data set [1] came to 22.2%.

Consider `C[C@H]1SC(N)=N[C@](C)(c2cc(NC(=O)c3cnc(OC(F)F)cn3)ccc2F)[C@H]1F` [Compound I-47], for which the Kp at 2 h at P-gp was 2.12.

`C[C@H]1SC(N)=N[C@](C)(c2cc(NC(=O)c3cnc(OCC(F)F)cn3)ccc2F)[C@H]1F` [Compound I-48]: the Kp at 2 h on P-gp is 5.57.

As for `Cc1cc(C#N)cnc1C(=O)Nc1ccc(F)c([C@@]2(C)N=C(N)S[C@H](C)[C@@H]2F)c1` [Compound I-52], in data set [1], the BA_% worked out at 39.1%.

For `C[C@H]1SC(N)=N[C@](C)(c2cc(NC(=O)c3ccc(F)cn3)ccc2F)[C@H]1F` [Compound I-116], the Kp at 2 h on P-gp is 4.54. In addition, the BA_% in data set [1] worked out at 78.7%.

The values are drawn from patent US20170073337A1, “DIHYDROTHIAZINE AND DIHYDROOXAZINE DERIVATIVES HAVING BACE1 INHIBITORY ACTIVITY” (Shionogi & Co., Ltd., priority 2014, published 2017).
